# Experimental data reported in ChEMBL document CHEMBL1138721, “Development of an efficient and selective radioligand for bradykinin B1 receptor occupancy studies” (Bioorg Med Chem Lett, 2004).
# Experiments:
# B2 bradykinin receptor [1] = target: T1, B2 bradykinin receptor (Homo sapiens, UniProt P30411); experiment: Binding affinity to human Bradykinin receptor B2 over-expressed in transgenic rats was determined by ex vivo receptor occupancy assay
# T1 sequence (P30411 whole entry): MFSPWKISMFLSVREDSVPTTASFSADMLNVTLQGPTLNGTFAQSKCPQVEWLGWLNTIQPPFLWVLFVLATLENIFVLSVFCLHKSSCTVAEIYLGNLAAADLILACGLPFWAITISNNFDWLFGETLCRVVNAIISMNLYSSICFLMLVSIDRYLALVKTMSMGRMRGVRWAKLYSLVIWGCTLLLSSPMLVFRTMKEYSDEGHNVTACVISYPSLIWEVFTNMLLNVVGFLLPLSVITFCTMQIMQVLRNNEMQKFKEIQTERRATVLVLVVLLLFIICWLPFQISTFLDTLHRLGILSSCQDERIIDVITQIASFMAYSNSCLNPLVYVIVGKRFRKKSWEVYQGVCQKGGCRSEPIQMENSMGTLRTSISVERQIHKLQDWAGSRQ
# B1 bradykinin receptor [2] = target: T2, B1 bradykinin receptor (Homo sapiens, UniProt P46663); experiment: Binding affinity to human Bradykinin receptor B1 over-expressed in transgenic rats was determined by ex vivo receptor occupancy assay
# T2 sequence (P46663 whole entry): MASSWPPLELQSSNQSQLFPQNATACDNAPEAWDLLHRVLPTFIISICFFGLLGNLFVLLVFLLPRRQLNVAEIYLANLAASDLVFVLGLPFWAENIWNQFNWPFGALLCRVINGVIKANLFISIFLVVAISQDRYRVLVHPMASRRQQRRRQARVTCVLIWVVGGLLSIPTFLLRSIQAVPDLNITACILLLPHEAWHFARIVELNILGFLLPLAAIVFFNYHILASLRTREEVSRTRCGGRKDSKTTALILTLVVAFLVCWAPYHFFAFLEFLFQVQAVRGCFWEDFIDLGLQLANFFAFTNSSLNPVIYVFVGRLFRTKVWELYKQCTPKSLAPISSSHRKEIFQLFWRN
# Homo sapiens [3] = species: Homo sapiens; experiment: Binding affinity to human plasma protein; assay type: cell-free
# [4] = Partition coefficient (logP); assay type: physicochemical; conditions: octanol/water
# B1 bradykinin receptor [5] = target: T2, B1 bradykinin receptor; experiment: Antagonist activity against human Bradykinin receptor B1 was determined in a fluorescence imaging plate reader assay; assay type: functional
# B2 bradykinin receptor [6] = target: T1, B2 bradykinin receptor; experiment: Binding affinity of the [35S]- radiolabeled compound to human Bradykinin receptor B2 over-expressed in transgenic rats was determined by ex vivo receptor occupancy assay
# B1 bradykinin receptor [7] = target: T2, B1 bradykinin receptor; experiment: Equilibrium dissociation constant of the [35S]- radiolabeled compound against human Bradykinin receptor B1 expressed in CHO membranes was determined; assay type: cell membranes
# [8] = Half-life of the [35S]- radiolabeled compound; assay type: ADME
# B1 bradykinin receptor [9] = target: T2, B1 bradykinin receptor; experiment: Binding affinity of the [35S]- radiolabeled compound to human Bradykinin receptor B1 over-expressed in transgenic rats was determined by ex vivo receptor occupancy assay
# B1 bradykinin receptor [10] = target: T3, B1 bradykinin receptor (Oryctolagus cuniculus, UniProt P48748); experiment: Binding affinity of the [35S]- radiolabeled compound to rabbit Bradykinin receptor B1
# T3 sequence (P48748 whole entry): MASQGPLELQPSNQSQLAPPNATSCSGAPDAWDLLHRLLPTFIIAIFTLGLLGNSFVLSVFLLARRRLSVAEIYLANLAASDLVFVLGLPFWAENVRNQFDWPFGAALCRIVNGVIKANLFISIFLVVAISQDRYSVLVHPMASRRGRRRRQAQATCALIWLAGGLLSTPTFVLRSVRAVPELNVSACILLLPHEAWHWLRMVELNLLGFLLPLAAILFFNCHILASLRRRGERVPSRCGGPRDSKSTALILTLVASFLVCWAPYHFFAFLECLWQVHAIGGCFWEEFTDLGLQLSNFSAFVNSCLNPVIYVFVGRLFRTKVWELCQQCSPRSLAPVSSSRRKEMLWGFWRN
# [11] = target: T4, B1 bradykinin receptor (Homo sapiens) (UniProt P46663); experiment: Maximum specific binding of the [35S]- radiolabeled compound to human Bradykinin receptor B1 expressed in CHO membranes was determined; assay type: cell membranes
# T4 sequence (whole entry): T2 sequence (P46663 whole entry)
# B1 bradykinin receptor [12] = target: T5, B1 bradykinin receptor (Rattus norvegicus, UniProt P97583); experiment: Binding affinity of the [35S]- radiolabeled compound to rat Bradykinin receptor B1
# T5 sequence (P97583 whole entry): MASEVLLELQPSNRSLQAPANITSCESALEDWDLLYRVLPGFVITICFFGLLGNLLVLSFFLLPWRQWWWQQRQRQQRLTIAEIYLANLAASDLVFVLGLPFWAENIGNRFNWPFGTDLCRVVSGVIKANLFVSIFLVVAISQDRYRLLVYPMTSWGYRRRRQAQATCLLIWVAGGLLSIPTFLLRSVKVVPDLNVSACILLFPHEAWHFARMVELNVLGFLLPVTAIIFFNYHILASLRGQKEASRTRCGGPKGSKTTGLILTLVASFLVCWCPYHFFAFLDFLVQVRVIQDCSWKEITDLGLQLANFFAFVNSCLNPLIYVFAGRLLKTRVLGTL
# Homo sapiens [13] = species: Homo sapiens; experiment: Binding affinity of the [35S]- radiolabeled compound to human plasma protein; assay type: cell-free
# B1 bradykinin receptor [14] = target: T6, B1 bradykinin receptor (Canis lupus familiaris, UniProt Q9BDQ5); experiment: Binding affinity of the [35S]- radiolabeled compound to dog Bradykinin receptor B1
# T6 sequence (Q9BDQ5 whole entry): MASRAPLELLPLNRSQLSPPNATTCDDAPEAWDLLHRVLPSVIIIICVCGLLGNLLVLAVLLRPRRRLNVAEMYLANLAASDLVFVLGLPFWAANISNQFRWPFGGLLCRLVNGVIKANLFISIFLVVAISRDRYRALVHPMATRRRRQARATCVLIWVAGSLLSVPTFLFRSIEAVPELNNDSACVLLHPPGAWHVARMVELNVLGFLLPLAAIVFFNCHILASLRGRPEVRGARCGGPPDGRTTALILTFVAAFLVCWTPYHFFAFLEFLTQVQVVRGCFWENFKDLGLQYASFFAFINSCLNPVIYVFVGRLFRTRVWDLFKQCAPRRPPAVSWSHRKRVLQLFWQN
# B1 bradykinin receptor [15] = target: T2, B1 bradykinin receptor; experiment: Binding affinity (radioligand) to human Bradykinin receptor B1 over-expressed in transgenic rats was determined by ex vivo receptor occupancy assay; value ranges from 0.1-0.2 nM
Structure (SMILES),Ki (B2 bradykinin receptor [1]),Ki (B1 bradykinin receptor [2]),PPB (Homo sapiens [3]),logP [4],other results
O=C(C[C@@H]1C(=O)Nc2ccccc2N1S(=O)(=O)c1ccc(Cl)c(Cl)c1)NCCc1ccc(C2=NCCN2)cc1,> 10000 nM,0.03 nM,36%,0.48,–
O=C(C[C@@H]1C(=O)Nc2ccc(Cl)cc2N1S(=O)(=O)c1ccc2ccccc2c1)NCCc1ccc(-c2ncc[nH]2)cc1,> 10000 nM,0.07 nM,–,3.41,–
O=C(C[C@@H]1C(=O)Nc2ccccc2N1S(=O)(=O)c1ccc(Cl)c(Cl)c1)NCCc1ccc(-n2ccnc2)cc1,> 10000 nM,1.09 nM,–,3.35,–
O=C(C[C@@H]1C(=O)Nc2ccccc2N1S(=O)(=O)c1ccc(Cl)c(Cl)c1)NCCc1ccc(-n2cnnc2)cc1,> 10000 nM,3.73 nM,82.5%,2.35,–
[3H][C@@]1(C(=O)NCC(=O)N[C@@H](Cc2ccccc2)C(=O)N[C@@H](CO)C(=O)N2CCC[C@H]2C(=O)N[C@@H](CC(C)C)C(=O)O)CCCN1C(=O)[C@]1([3H])CCCN1C(=O)[C@H](CCCN=C(N)N)NC(=O)[C@@H](N)CCCCN,–,–,–,–,Ki (B1 bradykinin receptor [15]): < 0.2 nM
O=C(C[C@@H]1C(=O)Nc2ccccc2N1S(=O)(=O)c1ccc2ccccc2c1)NCCc1ccc(-c2ncc[nH]2)cc1,> 10000 nM,0.07 nM,98.5%,3.32,–

# Continued, in another order:
Ki (B2 bradykinin receptor [1]),Ki (B1 bradykinin receptor [2]),PPB (Homo sapiens [3]),logP [4],Structure (SMILES),other results
> 10000 nM,0.02 nM,91.7%,0.53,CN1CCN=C1c1ccc(CCNC(=O)C[C@@H]2C(=O)Nc3ccc(Cl)cc3N2S(=O)(=O)c2ccc3ccccc3c2)cc1,–
–,–,–,0.25,O=C(C[C@@H]1C(=O)Nc2ccccc2N1S(=O)(=O)c1ccc2ccccc2c1)NCCc1ccc(C2=NCCN2)cc1,IC50 (B1 bradykinin receptor [5]): 0.04 nM; Ki (B2 bradykinin receptor [6]): > 10000 nM; Kd (B1 bradykinin receptor [7]): 0.015 nM; half-life [8]: ~3.33 h; Ki (B1 bradykinin receptor [9]): 0.02 nM; Ki (B1 bradykinin receptor [10]): 0.05 nM; Bmax (fM mg-1 protein) [11]: 480; Ki (B1 bradykinin receptor [12]): 34 nM; PPB (Homo sapiens [13]): 79.4%; Ki (B1 bradykinin receptor [14]): 0.5 nM
> 10000 nM,0.01 nM,93.6%,1,O=C(C[C@@H]1C(=O)Nc2ccc(Cl)cc2N1S(=O)(=O)c1ccc2ccccc2c1)NCCc1ccc(C2=NCCN2)cc1,–
